Measurements taken from the kinase profiling compilation of Christmann-Franck et al. (2016).

Experiments:
Test in all cases: radiometric filter-binding kinase assay
[1] = biological target: TTBK1 (human) (UniProt Q5TCY1); settings: compound 1.0 µM
[2] = biological target: ABL1 (human) (UniProt P00519)
[3] = tested on: TGFBR1 (human), P36897 [T204D]
[4] = biological target: TESK1 (human) (UniProt Q15569)
[5] = biological target: STK33 (human) (UniProt Q9BYT3)
[6] = biological target: EIF2AK3 (human) (UniProt Q9NZJ5); settings: compound 1.0 µM
[7] = biological target: CDK9 CCNT1 (human) (UniProt P50750+O60563)
[8] = biological target: TEK (human) (UniProt Q02763); settings: compound 1.0 µM
[9] = biological target: MYLK (human) (UniProt Q15746); settings: compound 1.0 µM
[10] = biological target: TTBK2 (human) (UniProt Q6IQ55)
[11] = biological target: MAPK7 (human) (UniProt Q13164)
[12] = biological target: IRAK1 (human) (UniProt P51617); settings: compound 10.0 µM
[13] = biological target: ZAP70 (human) (UniProt P43403)
[14] = biological target: CSNK1G2 (human) (UniProt P78368)
[15] = biological target: PRKCG (human) (UniProt P05129)
[16] = biological target: SIK3 (human) (UniProt Q9Y2K2)
[17] = biological target: TSSK1B (human) (UniProt Q9BXA7); settings: compound 10.0 µM
[18] = biological target: PDGFRA (human) (UniProt P16234)
[19] = biological target: TLK1 (human) (UniProt Q9UKI8)
[20] = biological target: PTK6 (human) (UniProt Q13882)
[21] = biological target: WNK1 (human) (UniProt Q9H4A3); settings: compound 10.0 µM
[22] = biological target: MAP4K5 (human) (UniProt Q9Y4K4)
[23] = biological target: PRKAA1 PRKAB2 PRKAG1 (human) (UniProt O43741+Q13131+P54619)
PRKAA1 PRKAB2 PRKAG1 (human), sequence (O43741 whole entry, looked up): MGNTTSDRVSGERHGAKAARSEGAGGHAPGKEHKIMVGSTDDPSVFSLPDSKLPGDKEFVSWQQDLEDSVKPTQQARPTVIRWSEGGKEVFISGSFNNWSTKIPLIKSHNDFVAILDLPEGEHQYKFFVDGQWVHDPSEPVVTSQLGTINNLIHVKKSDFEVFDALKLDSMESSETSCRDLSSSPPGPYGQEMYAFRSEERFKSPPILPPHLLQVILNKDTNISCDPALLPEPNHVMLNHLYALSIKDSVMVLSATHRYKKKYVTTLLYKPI
PRKAA1 PRKAB2 PRKAG1 (human), sequence (P54619 whole entry, looked up): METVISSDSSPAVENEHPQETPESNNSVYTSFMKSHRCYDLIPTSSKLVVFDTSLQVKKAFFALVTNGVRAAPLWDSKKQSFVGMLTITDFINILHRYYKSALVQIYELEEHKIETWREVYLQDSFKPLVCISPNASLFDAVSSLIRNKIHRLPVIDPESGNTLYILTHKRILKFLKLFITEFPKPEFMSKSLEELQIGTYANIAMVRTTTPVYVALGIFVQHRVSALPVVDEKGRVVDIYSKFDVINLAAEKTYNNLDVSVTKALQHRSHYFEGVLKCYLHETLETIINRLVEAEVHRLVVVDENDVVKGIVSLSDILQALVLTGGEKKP
PRKAA1 PRKAB2 PRKAG1 (human), sequence (Q13131 whole entry, looked up): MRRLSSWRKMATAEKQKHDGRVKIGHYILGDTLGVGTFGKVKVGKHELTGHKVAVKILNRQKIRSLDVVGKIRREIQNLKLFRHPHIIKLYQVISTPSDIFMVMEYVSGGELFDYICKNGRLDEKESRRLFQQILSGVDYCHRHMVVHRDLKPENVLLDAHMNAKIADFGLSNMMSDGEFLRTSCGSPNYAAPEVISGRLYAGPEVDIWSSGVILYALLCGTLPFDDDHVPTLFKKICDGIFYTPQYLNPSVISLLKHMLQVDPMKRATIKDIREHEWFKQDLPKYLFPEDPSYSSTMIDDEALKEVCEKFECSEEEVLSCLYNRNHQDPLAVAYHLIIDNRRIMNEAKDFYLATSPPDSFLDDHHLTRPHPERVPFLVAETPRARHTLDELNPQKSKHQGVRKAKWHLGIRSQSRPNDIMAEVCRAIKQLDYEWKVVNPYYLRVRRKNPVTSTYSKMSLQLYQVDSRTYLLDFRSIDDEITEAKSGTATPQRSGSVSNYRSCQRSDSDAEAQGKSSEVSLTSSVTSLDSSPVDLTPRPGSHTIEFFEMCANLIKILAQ

[24] = biological target: DDR2 (human) (UniProt Q16832)
[25] = biological target: MAP4K3 (human) (UniProt Q8IVH8)
MAP4K3 (human), sequence (Q8IVH8 whole entry, looked up): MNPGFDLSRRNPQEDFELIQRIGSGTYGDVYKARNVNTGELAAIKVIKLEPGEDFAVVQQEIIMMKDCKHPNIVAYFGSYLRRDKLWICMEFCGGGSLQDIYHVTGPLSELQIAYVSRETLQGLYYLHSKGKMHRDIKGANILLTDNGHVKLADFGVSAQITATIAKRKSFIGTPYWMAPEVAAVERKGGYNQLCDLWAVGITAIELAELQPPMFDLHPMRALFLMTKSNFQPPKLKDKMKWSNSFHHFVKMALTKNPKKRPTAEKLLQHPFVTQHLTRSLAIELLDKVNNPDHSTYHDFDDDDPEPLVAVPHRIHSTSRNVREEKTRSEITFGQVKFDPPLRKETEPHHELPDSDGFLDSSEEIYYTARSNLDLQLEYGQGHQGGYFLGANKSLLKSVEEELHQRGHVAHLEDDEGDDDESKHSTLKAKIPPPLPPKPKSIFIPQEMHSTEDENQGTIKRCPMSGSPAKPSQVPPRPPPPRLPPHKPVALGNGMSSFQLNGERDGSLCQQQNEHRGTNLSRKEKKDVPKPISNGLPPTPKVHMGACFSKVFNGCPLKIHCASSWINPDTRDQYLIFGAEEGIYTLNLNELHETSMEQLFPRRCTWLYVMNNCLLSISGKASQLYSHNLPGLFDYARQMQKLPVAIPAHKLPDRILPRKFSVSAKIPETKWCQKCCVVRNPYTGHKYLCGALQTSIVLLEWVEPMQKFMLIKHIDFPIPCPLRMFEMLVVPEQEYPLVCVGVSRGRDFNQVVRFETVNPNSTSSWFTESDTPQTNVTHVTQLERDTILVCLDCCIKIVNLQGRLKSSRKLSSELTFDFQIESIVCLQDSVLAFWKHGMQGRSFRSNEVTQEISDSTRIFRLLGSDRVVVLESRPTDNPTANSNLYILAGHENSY

[26] = biological target: ULK1 (human) (UniProt O75385)
[27] = tested on: OXSR1 (human), O95747 [T185E]; settings: compound 1.0 µM
[28] = biological target: STK24 (human) (UniProt Q9Y6E0)
STK24 (human), sequence (Q9Y6E0 whole entry, looked up): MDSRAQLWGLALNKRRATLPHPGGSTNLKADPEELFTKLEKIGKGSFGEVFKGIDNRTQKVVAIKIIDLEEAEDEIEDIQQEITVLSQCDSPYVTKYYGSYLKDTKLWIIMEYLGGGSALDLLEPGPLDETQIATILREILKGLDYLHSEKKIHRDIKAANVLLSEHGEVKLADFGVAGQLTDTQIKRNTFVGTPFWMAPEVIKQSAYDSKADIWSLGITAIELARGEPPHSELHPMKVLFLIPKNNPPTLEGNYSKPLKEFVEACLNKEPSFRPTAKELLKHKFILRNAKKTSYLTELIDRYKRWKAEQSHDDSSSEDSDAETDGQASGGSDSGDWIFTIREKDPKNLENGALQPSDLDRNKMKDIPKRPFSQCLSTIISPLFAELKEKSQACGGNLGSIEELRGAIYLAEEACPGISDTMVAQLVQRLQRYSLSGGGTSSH

[29] = biological target: SIK2 (human) (UniProt Q9H0K1)
SIK2 (human), sequence (Q9H0K1 whole entry, looked up): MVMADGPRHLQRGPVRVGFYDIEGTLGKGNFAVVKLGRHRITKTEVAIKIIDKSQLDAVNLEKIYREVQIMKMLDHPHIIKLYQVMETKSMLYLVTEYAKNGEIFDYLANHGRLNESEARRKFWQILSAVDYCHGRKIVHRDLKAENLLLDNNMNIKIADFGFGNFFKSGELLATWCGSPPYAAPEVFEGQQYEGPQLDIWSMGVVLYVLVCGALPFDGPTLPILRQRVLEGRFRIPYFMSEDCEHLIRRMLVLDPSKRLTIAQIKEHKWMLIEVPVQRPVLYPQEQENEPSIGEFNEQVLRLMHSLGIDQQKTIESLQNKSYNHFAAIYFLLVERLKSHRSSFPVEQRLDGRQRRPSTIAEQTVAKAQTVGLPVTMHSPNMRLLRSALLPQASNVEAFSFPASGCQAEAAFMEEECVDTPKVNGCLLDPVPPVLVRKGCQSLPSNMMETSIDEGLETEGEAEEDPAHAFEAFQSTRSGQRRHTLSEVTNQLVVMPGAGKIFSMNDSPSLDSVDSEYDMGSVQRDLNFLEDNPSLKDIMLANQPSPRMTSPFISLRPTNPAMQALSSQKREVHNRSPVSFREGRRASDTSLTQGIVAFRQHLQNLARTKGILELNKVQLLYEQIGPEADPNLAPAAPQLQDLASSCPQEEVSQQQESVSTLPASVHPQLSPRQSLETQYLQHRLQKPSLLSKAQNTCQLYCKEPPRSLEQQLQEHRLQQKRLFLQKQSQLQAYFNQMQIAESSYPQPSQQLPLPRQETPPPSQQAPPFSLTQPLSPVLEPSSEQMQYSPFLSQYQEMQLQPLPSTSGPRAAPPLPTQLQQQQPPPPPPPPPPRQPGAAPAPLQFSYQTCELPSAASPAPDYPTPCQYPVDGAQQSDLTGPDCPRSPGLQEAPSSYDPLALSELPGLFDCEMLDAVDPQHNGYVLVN

TESK1 (human), sequence (Q15569 whole entry, looked up): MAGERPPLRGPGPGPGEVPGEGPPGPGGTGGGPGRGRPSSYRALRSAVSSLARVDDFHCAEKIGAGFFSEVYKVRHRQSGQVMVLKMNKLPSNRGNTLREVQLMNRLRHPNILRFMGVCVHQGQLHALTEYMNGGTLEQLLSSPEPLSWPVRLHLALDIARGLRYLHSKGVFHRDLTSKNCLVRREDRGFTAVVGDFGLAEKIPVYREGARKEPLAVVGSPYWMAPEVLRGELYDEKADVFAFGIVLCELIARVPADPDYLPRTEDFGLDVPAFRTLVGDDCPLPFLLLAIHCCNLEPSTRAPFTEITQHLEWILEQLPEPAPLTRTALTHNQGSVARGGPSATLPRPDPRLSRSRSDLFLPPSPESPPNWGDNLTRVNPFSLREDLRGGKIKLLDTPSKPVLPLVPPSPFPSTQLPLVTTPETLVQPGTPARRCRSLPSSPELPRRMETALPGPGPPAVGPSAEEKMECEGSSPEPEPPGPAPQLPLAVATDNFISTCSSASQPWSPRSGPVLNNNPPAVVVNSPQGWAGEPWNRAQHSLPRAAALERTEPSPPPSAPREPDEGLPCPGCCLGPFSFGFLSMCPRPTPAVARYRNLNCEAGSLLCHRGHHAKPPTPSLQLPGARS

NCC(=O)Nc1ccc(-n2nc(C(F)(F)F)cc2-c2ccc3c(ccc4ccccc43)c2)cc1
residual activity [1]: 88%
residual activity ([2]; compound 1.0 µM): 95%
residual activity ([2]; compound 10.0 µM): 103%
residual activity ([3]; compound 1.0 µM): 98%
residual activity ([3]; compound 10.0 µM): 98%
residual activity ([4]; compound 1.0 µM): 84%
residual activity ([4]; compound 10.0 µM): 103%
residual activity ([5]; compound 1.0 µM): 91%
residual activity ([5]; compound 10.0 µM): 92%
residual activity [6]: 102%
residual activity ([7]; compound 1.0 µM): 82%
residual activity ([7]; compound 10.0 µM): 83%
residual activity [8]: 103%
residual activity [9]: 109%
residual activity ([10]; compound 1.0 µM): 96%
residual activity ([10]; compound 10.0 µM): 154%
residual activity ([11]; compound 1.0 µM): 91%
residual activity ([11]; compound 10.0 µM): 89%
residual activity [12]: 80%
residual activity ([13]; compound 1.0 µM): 84%
residual activity ([13]; compound 10.0 µM): 83%
residual activity ([14]; compound 1.0 µM): 93%
residual activity ([14]; compound 10.0 µM): 90%
residual activity ([15]; compound 1.0 µM): 95%
residual activity ([15]; compound 10.0 µM): 97%
residual activity ([16]; compound 1.0 µM): 91%
residual activity ([16]; compound 10.0 µM): 101%
residual activity [17]: 83%
residual activity ([18]; compound 1.0 µM): 82%
residual activity ([18]; compound 10.0 µM): 98%
residual activity ([19]; compound 1.0 µM): 89%
residual activity ([19]; compound 10.0 µM): 104%
residual activity ([20]; compound 1.0 µM): 91%
residual activity ([20]; compound 10.0 µM): 91%
residual activity [21]: 105%
residual activity ([22]; compound 1.0 µM): 80%
residual activity ([22]; compound 10.0 µM): 73%
residual activity ([23]; compound 1.0 µM): 88%
residual activity ([23]; compound 10.0 µM): 94%
residual activity ([24]; compound 1.0 µM): 92%
residual activity ([24]; compound 10.0 µM): 101%
residual activity ([25]; compound 1.0 µM): 84%
residual activity ([25]; compound 10.0 µM): 73%
residual activity ([26]; compound 1.0 µM): 86%
residual activity ([26]; compound 10.0 µM): 97%
residual activity [27]: 95%
residual activity ([28]; compound 1.0 µM): 84%
residual activity ([28]; compound 10.0 µM): 70%
residual activity ([29]; compound 1.0 µM): 95%
residual activity ([29]; compound 10.0 µM): 79%
